The target of one assay is p38α/MK2 (Homo sapiens, UniProt Q16539). As to the kind of experiment: p38α/MK2 cascade assay (phosphorylation of Hsp27 peptide, Caliper LabChip 3000). Particulars: Hsp27 peptide 1 μM, MgATP 10 μM, 30 minutes, room temperature, two values given, read-out: p38/MK2 IC50. Format: biochemical. As to the method:
(§1) P38 inhibitory potency and P38/MK2 substrate selectivity: The novel, MK2 substrate-selective inhibitory mechanism of compounds is evaluated in enzyme assays comparing inhibitor potency in blocking p38/MK2 versus p38/PRAK induced phosphorylation of an HSP-27 derived peptide substrate. The ability of compounds to inhibit activated phospho-p38α is evaluated using a p38α/MK2 and a p38α/PRAK cascade assay format. The kinase activity of p38α is determined by its ability to phosphorylate GST-MK2 or GST-PRAK. Activation of MK2 or PRAK by p38α is quantitated by measuring the phosphorylation of a fluorescently-labeled, MK2 specific peptide substrate, Hsp27 peptide (FITC-KKKALSRQLSVAA). The phosphorylation of the Hsp27 peptide is quantified using the Caliper LabChip 3000. Kinase reactions are carried out in a 384-well plate (Matrical, MP101-1-PP) in 20 mM HEPES pH 7.5, 10 mM MgCl2, 0.0005% Tween-20, 0.01% BSA, 1 mM DTT, and 2% DMSO. The inhibitor concentration is varied between 0.02-30,000 nM, while the Hsp27 peptide substrate and MgATP are held constant at 1 μM and 10 μM, respectively. Activated p38α is added to a final concentration of […] for reactions with nonphosphorylated 1 nM His6-MK2 in the cascade reaction. For the p38α/PRAK cascade, unactivated GST-PRAK is held constant at 1 nM while p38α is added in to a final concentration of […]. Kinase reactions are incubated at room temperature and quenched after 30 minutes by the addition of stop buffer (180 mM HEPES, 30 mM EDTA, and 0.2% Coating Reagent-3). Under these conditions, approximately 20% of the substrate Hsp27 peptide is phosphorylated. Reactions are initiated by the addition of activated p38α except for preincubation experiments, where reactions are initiated by the addition of Hsp27 peptide and MgATP. Preincubation of p38α with inhibitor or p38α with unactivated His6-MK2 or unactivated GST-PRAK and inhibitor are performed at 2× final assay concentrations at room temperature 240 minutes prior to adding ATP and Hsp27 peptide to initiate catalysis. The p38α compound inhibitory potency is quantitated from dose-response IC50 values or Ki values from p38α/MK2 cascade assays while the substrate selectivity is calculated as a ratio of p38α/PRAK:p38α/MK2 IC50 values. Species compounds of Formula I, described hereinabove, evaluated in this assay, are expected to provide a therapeutic benefit in the treatment of p38 kinase mediated diseases, such as autoimmune diseases and lymphoma.

Another assay addresses p38α/PRAK (Homo sapiens, UniProt Q16539). As to the kind of experiment: p38α/PRAK cascade assay (phosphorylation of Hsp27 peptide, Caliper LabChip 3000). Format: biochemical. Conditions: Hsp27 peptide 1 μM, MgATP 10 μM, 30 minutes, room temperature, two values given, read-out: p38/PRAK IC50. On the procedure:
as §1

Drawing on patent US8563558B2, “Substituted pyridine urea compounds” (Confluence Life Sciences, Inc., priority 2010, dated 2013), this text covers IC50 for 5 compounds.

SMILES strings stand for the structures. “And” between values parts separate entries of the source, which are not always exact repeats. Equal values may be shown once. Bounds are passed on as bounds.

Sequence of p38α/MK2 (Q16539 whole entry): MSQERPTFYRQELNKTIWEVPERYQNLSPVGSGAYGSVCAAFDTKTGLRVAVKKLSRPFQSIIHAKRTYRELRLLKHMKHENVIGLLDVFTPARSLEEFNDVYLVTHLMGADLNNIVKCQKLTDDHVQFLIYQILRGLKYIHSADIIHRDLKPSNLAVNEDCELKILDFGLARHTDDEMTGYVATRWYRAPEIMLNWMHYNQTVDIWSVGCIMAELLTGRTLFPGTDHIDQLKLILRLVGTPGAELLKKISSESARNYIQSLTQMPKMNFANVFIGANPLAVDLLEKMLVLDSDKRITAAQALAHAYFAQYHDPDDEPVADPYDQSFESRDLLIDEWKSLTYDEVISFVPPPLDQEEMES
Sequence of p38α/MK2 (P49137 whole entry partner): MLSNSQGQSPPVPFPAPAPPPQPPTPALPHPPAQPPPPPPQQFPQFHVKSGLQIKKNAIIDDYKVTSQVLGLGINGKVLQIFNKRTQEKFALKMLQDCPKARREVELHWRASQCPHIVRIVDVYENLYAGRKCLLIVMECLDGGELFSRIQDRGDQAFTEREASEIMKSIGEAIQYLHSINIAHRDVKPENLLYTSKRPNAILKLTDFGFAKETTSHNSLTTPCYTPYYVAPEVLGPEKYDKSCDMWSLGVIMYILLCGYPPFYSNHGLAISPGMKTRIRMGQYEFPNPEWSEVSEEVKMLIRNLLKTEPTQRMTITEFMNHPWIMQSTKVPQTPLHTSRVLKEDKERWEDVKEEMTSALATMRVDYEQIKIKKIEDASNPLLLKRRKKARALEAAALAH
Sequence of p38α/PRAK (Q16539 whole entry): as the sequence (Q16539 whole entry) above

With `Cc1ccc(-c2ccnc(C(C)(C)O)n2)cc1N(C(N)=O)c1cccc(-c2ccc(F)cc2F)n1` [Example 5, 1-(6-(2,4-difluorophenyl)pyridin-2-yl)-1-(5-(2-(2-hydroxypropan-2-yl)pyrimidin-4-yl)-2-methylphenyl)urea], the IC50 on p38α/MK2 is 0.34 µM and 0.36 µM; at p38α/PRAK, 1.9 µM and 2.6 µM.
With `Cc1ccc(-c2ccnc(C(C)(C)C)n2)cc1N(C(N)=O)c1ccc(C(N)=O)c(-c2ccc(F)cc2F)n1` [Example 17, 6-(1-(5-(2-(tert-butyl)pyrimidin-4-yl)-2-methylphenyl)ureido)-2-(2,4-difluorophenyl)nicotinamide], the IC50 was 0.55 µM and 0.5 µM on p38α/MK2; more than 10 µM on p38α/PRAK.
In the case of `Cc1ccc(-c2ccnc(C(C)(C)C)n2)cc1N(C(N)=O)c1cccc(-c2ccc(F)cc2F)n1` [Example 31, 1-(5-(2-(tert-butyl)pyrimidin-4-yl)-2-methylphenyl)-1-(6-(2,4-difluorophenyl)pyridin-2-yl)urea], the IC50 on p38α/MK2 was 1.27 µM and 1.53 µM; at p38α/PRAK, more than 50 µM.
For the compound `COC(=O)c1ccc(N(C(N)=O)c2cc(-c3ccnc(C(C)(C)C)n3)ccc2C)nc1-c1ccc(F)cc1F` [Example 32, methyl 6-(1-(5-(2-(tert-butyl)pyrimidin-4-yl)-2-methylphenyl)ureido)-2-(2,4-difluorophenyl)nicotinate], the IC50 at p38α/MK2 is 0.838 µM and 0.955 µM; on p38α/PRAK, more than 10 µM.
With `Cc1nc(-c2cccc(N(C(N)=O)c3cc(-c4ccnc(C(C)(C)C)n4)ccc3C)n2)cs1` [Example 33, 1-(5-(2-(tert-butyl)pyrimidin-4-yl)-2-methylphenyl)-1-(6-(2-methylthiazol-4-yl)pyridin-2-yl)urea], the IC50 on p38α/MK2 was 9.5 µM and 12 µM; on p38α/PRAK it was more than 50 µM.
